# Test results as given in US8334261B2, “Osteopenia animal model” (Oriental Yeast Co., Ltd., priority 2006, dated 2012).
# Key:
# [1] = system: 7-week-old female C57BL/6N mice; experiment: GST-RANKL administration test (57 and 426 nmol); format: in vivo, mouse
# Description: GST-RANKL was intraperitoneally administered 3 times to groups of 7-week-old female C57BL/6N mice (10 individuals each) at doses of 57 nmol (low dose) and 426 nmol (high dose) every 24 hours. Exsanguination was performed 1.5 hours after the 3rd administration. A group to which PBS was administered in the same manner as above was used as a control group for comparison.
# The exsanguinated blood was subjected to measurement of serum bone resorption parameters (calcium, CTx, TRAP-5b) and serum osteogenesis parameters (osteocalcin and alkaline phosphatase (ALP)). Calcium was measured by the OCPC method (WAKO, 272-21801). CTx (Nordic Bioscience Diagnostics), TRAP-5b (IDS Ltd, SB-TR103), and osteocalcin (Biomedical Technologies Inc.) were measured by ELISA. ALP was measured by the Bessey-Lowry method (WAKO, 274-04401).
# The following organs were collected from each exsanguinated mouse: the femur, the tibia, the cerebrum, the lungs, the heart, the liver, the thymus, the spleen, the kidneys, and the skin. Naturally occurring lesions were observed by HE staining of the cerebrum, the lungs, the heart, the liver, the thymus, the spleen, the kidneys, and the skin.
# Regarding the femur, the cancellous bone was subjected to bone density measurement with the use of pQCT at points 0.6 mm, 0.8 mm, and 1.0 mm from the distal growth plate on the proximal side at the distal end of the femur. Regarding the tibia, tibia sections were prepared for bone morphology measurement. Measurement values were compared with those for a control group by the Dunnett method for testing.
# [2] = system: 7-week-old female C57BL/6N mice; experiment: Evaluation of a bone mass increase with PTH (GST-RANKL, ovariectomy); format: in vivo, mouse; conditions: for femur bone density decrease vs PBS+Sham: GST-RANKL+Sham
# Description: GST-RANKL was administered twice to groups of 7-week-old female C57BL/6N mice at 1 mg/kg every 24 hours. Ovariectomy was performed 24 hours after the 2nd administration. In addition, parathyroid hormone (PTH) was subcutaneously administered thereto at 160 μg/kg from 24 hours after the ovariectomy for 10 consecutive days. Further, a group obtained by PBS administration and sham operation (Sham) was designated as a control group for comparison. The serum markers and the femur bone density were measured.
# [3] = system: 7-week-old male C57BL/6N mice; experiment: Evaluation of male mice; format: in vivo, mouse
# Description: (§1) GST-RANKL was intraperitoneally administered 3 times to groups of 7-week-old male C57BL/6N mice at 1 mg/kg every 24 hours. The femur and serum were collected from each mouse 1.5 hours after the 3rd administration and compared with those of the PBS administration group. Regarding bone metabolism markers, TRAP-5b, calcium (Ca), and alkaline phosphatase (ALP) in the serum were measured. Each femur was subjected to bone density measurement with pQCT and image analysis with micro CT.
# [4] = system: 7-week-old female ICR mice; experiment: Evaluation of mice of the other lineages (ICR); format: in vivo, mouse
# Description: as §1, with “female ICR” for “male C57BL/6N”
# [5] = system: 7-week-old female Fischer rats; experiment: Examination with Fischer rats; format: in vivo, rat
# Description: GST-RANKL was intraperitoneally administered 3 times to 7-week-old female Fischer rats at 1 mg/kg every 24 hours. The serum and femur were collected from each mouse 1.5 hours after the 3rd administration, followed by comparison with the PBS administration group. The serum of each mouse was subjected to measurement (with the use of an SB-TR102 kit, IDS Ltd.) of the Ca and TRAP-5b concentrations serving as bone resorption markers and the ALP concentration serving as an osteogenesis marker. Each femur was subjected to bone density measurement with pQCT and image analysis with micro CT.
# [6] = system: GST-RANKL-administered, ovariectomized 7-week-old female C57BL/6N mice; experiment: Drug evaluation with a selective estrogen receptor modulator (raloxifene) in GST-RANKL/OVX mice; format: in vivo, mouse
# From the text: In addition, PBS (i.p.) and ultrapure water (p.o.) were used as control substances for comparison with GST-RANKL and raloxifene, respectively, upon administration.
# The serum collected from each mouse was subjected to measurement of serum bone resorption markers (Ca and TRAP-5b) and an osteogenesis marker (ALP). Each femur was subjected to measurement of the bone density, the bone mineral content, and the cortical bone thickness with pQCT at points 0.6, 0.8, 1.0 mm from the distal growth plate on the proximal side. In addition, image analysis was carried out with micro CT.
# [7] = high dose 426 nmol i.p. 3 times
# [8] = GST-RANKL administration+OVX group, 1.0 mm
substance,measurement,setting,value
"GST-RANKL: fused protein of Glutathione S-transferase with human RANKL residues 140-317, expressed in Escherichia coli, 47.0 kDa",abnormal findings and lesions in organs (HE staining),"[1]; 57 and 426 nmol, cerebrum, lungs, heart, liver, thymus, spleen, kidneys, skin",not observed
same,femur bone morphology with micro CT,[1]; high dose 426 nmol,significant bone decreases
same,serum ALP concentration,[1]; high dose 426 nmol,did not vary
same,serum osteocalcin concentration,[1]; high dose 426 nmol,did not vary
same,tibial osteoblast surface area,[1]; high dose 426 nmol,significant osteoblast surface area increase
same,tibial osteoclast number,[1]; high dose 426 nmol,increased
same,tibial trabecular number decrease,[1]; high dose 426 nmol,approximately 50%
same,tibial unit bone mass decrease,[1]; high dose 426 nmol,approximately 50%
same,"serum CTx concentration, fold as high as control",[1]; [7],approximately 1.5 fold
same,"serum TRAP-5b concentration, fold as high as control",[1]; [7],approximately 1.5 fold
same,"serum Ca concentration, fold as high as control","[1]; high dose 426 nmol i.p. 3 times every 24 hours, 1.5 hours after 3rd administration",approximately 1.4 fold
same,femur bone density decrease (pQCT),"[1]; high dose 426 nmol, 0.6 mm from distal growth plate",10%
same,femur bone density decrease (pQCT),"[1]; high dose 426 nmol, 0.8 mm",23%
same,femur bone density decrease (pQCT),"[1]; high dose 426 nmol, 1.0 mm",20%
same,femur bone density (pQCT) vs control,[1]; low dose 57 nmol,no significant difference
same,serum ALP concentration,[1]; low dose 57 nmol,did not vary
same,serum osteocalcin concentration,[1]; low dose 57 nmol,did not vary
same,tibial trabecular number,[1]; low dose 57 nmol,no decrease was observed
same,tibial unit bone mass,[1]; low dose 57 nmol,no decrease was observed
same,femur bone density vs PBS+Sham,[2]; GST-RANKL+OVX group,No bone density decrease was observed
same,femur bone density decrease vs PBS+Sham,[2]; 0.6 mm,approximately 17%
same,femur bone density decrease vs PBS+Sham,[2]; 0.8 mm,~15%
same,femur bone density decrease vs PBS+Sham,[2]; 1.0 mm,~18%
same,serum Ca concentration,[2]; every GST-RANKL administration group,no changes
same,serum ALP concentration decrease,"[2]; every GST-RANKL administration group, 1 mg/kg twice",approximately 24%
same,serum ALP concentration,[3]; 1 mg/kg i.p. 3 times,no changes
same,serum TRAP-5b concentration increase,[3]; 1 mg/kg i.p. 3 times,approximately 65%
same,serum Ca concentration increase vs PBS group,"[3]; 1 mg/kg i.p. 3 times, no significant difference",7%
same,femur bone density decrease,[3]; 0.6 mm,approximately 6%
same,femur bone density decrease,[3]; 0.8 mm,approximately 10%
same,femur bone density decrease,[3]; 1.0 mm,approximately 15%
same,serum ALP concentration,[4]; 1 mg/kg i.p. 3 times,no changes
same,serum Ca concentration vs control,[4]; 1 mg/kg i.p. 3 times,no changes
same,"serum TRAP-5b concentration, fold as high as PBS group",[4]; 1 mg/kg i.p. 3 times,1.8 fold
same,femur bone density decrease vs control,[4]; 1.0 mm,approximately 20%
same,femur bone density decrease vs control,[4]; 1.2 mm,approximately 20%
same,femur bone density decrease vs control,[4]; 1.4 mm,approximately 22%
same,serum ALP concentration vs control,[5]; 1 mg/kg i.p. 3 times,no changes
same,serum Ca concentration vs control,[5]; 1 mg/kg i.p. 3 times,no changes
same,serum TRAP-5b concentration vs control,[5]; 1 mg/kg i.p. 3 times,no changes
same,femur bone density decrease,[5]; 3 mm from the distal growth plate,approximately 20%
same,serum ALP concentration vs PBS+Sham group,[6]; GST-RANKL administration+OVX group,tended to increase
same,cortical bone mineral content decrease vs PBS+Sham group,[6]; [8],49%
same,cortical bone thickness decrease vs PBS+Sham group,[6]; [8],49%
same,total bone density vs PBS+Sham group,"[6]; GST-RANKL administration+OVX group, no significant difference",tended to decrease
same,cancellous bone density (pQCT),[6]; among the all groups,no significant differences
